Experimental data reported in patent publication US6492364B1, “Triazolo and derivatives as chemokine inhibitors” (Toray Industries, Inc., priority 1998, dated 2002).
Counter-ions that a name gives are not always drawn.

Legend:
CCR2 = molecular target: T1, CCR2 (Homo sapiens, UniProt P41597); assay: Inhibition of MCP-1-induced intracellular calcium increase in THP-1 cells (Fura-2); type: cell-based; conditions: human monocytic cell line THP-1, stimulated with MCP-1 (10 ng/ml), intracellular calcium level
T1 construct: endogenous in cells; host or cells: THP-1 (human monocytic cell line)
T1 sequence (P41597 1-360 isoform P41597-2): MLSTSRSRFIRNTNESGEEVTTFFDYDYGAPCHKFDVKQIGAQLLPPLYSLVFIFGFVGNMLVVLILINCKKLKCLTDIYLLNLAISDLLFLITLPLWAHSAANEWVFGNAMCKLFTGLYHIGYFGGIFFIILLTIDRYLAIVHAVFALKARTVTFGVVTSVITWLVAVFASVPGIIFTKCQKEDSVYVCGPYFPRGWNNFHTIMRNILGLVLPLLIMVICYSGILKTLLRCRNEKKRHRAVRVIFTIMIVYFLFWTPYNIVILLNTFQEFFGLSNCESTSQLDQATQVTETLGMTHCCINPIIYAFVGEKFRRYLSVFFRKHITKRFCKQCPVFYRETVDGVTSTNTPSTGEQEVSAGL
Description: (§1) The CCR receptor-inhibiting activities of the compounds represented by Formula I will now be described. Using human eosinophil or human monocytic cell line (THP-1), the CCR receptor-inhibiting activities were studied.
(§2) Human peripheral blood eosinophils or THP- l cells were suspended in RPMI-1640 culture medium containing 1% fetal calf serum (FCS) and cultured at 37° C. for 30 minutes in the presence of 5 μM of Fura-2/AM (DOJINDO LABORATORIES). The cells were washed twice with assay buffer (140 mM NaCl, 10 mM KCl, 1.8mM CaCl2, 1 mM MgCl2, 1 mM Na2HPO4, 25mM HEPES, 5 mM glucose, 1% BSA; pH7.4) at 4° C. to remove Fura-2/AM which was not taken into the cells. The cells were suspended in the assay buffer to a final cell density of 1×10^6 cells/ml and the cell suspension was stored in the dark until assay. The calcium levels in the cells were measured by using CAF100 commercially available from Nippon Koden Co. That is, 490 μl of the suspension of the cells loaded with Fura-2 was placed in a cuvette and the cuvette was set in CAF100. After the fluorescence intensities at 340 nm and 380 nm of excitation, as well as the ratio thereof, were stabilized, 10 μl of 250 μM solution of each test compound was injected. The change in the calcium level in the cells within one minute from the stimulation was measured in terms of the ratio (F340/F380) of the intensity of the excitation light at 340 nm to that of the light at 380 nm, and the intracellular calcium level induced by the stimulation was defined as the peak of the ratio. One minute after exposure of the cells to each test compound, the cells were stimulated with eotaxin (5 ng/ml), RANTES (40 ng/ml) or MCP-1 (10 ng/ml). It is thought that the responses by THP-1 cells to RANTES and MCP-1 are mediated through CCR1 and CCR2, respectively; The response of eosinophils to eotaxin is thought to be mediated through CCR3. The increase of the intracellular calcium level was compared to that of the corresponding case wherein the cells were not treated with the test compound.

CCR1 = molecular target: T2, CCR1 (Homo sapiens, UniProt P32246); assay: Inhibition of RANTES-induced intracellular calcium increase in THP-1 cells (Fura-2); type: cell-based; conditions: human monocytic cell line THP-1, stimulated with RANTES (40 ng/ml), intracellular calcium level
T2 construct: endogenous in cells; host or cells: THP-1 (human monocytic cell line)
T2 sequence (P32246 1-355): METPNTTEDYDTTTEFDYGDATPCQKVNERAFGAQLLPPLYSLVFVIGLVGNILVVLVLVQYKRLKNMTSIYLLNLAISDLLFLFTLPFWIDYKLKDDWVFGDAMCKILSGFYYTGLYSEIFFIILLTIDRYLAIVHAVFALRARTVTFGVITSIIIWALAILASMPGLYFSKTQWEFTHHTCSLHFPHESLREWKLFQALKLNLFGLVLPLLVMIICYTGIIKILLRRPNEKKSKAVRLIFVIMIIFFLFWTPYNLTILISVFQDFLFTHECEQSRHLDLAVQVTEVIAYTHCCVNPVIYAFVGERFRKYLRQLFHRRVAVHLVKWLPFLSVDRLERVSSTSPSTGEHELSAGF
Description: as §1, §2

CCR3 = molecular target: T3, CCR3 (Homo sapiens, UniProt P51677); assay: Inhibition of eotaxin-induced intracellular calcium increase in human eosinophils (Fura-2); type: cell-based; conditions: human peripheral blood eosinophils, stimulated with eotaxin (5 ng/ml), intracellular calcium level
T3 construct: endogenous in cells; host or cells: human peripheral blood eosinophils (primary cells)
T3 sequence (P51677 1-355): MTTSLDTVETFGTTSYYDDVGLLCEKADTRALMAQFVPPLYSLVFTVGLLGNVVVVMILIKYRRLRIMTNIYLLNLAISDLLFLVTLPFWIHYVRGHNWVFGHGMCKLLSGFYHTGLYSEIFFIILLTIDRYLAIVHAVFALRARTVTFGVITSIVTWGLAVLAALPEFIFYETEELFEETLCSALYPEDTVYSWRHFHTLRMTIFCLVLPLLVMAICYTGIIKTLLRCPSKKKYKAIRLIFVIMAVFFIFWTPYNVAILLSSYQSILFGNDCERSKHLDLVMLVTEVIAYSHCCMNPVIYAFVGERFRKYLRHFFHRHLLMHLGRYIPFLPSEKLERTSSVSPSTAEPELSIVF
Description: as §1, §2

SMILES | melting point | IC50 (CCR2) [µM] | IC50 (CCR1) [µM] | IC50 (CCR3) [µM]
Cc1nnc2n(CCCN3CCC(C(c4ccccc4)c4ccccc4)CC3)c(=O)c3ccccc3n12 (as salt: hydrochloride) [Compound 14] | 172.8 to 190.5 °C | – | – | –
Cc1nnc2n(CCCN3CCN(Cc4cccc(Oc5ccccc5)c4)CC3)c(=O)c3ccccc3n12 (as salt: hydrochloride) [Compound 17, 2,4,5,7-Tetraaza-3-methyl-7-(3-(4-((3-phenoxyphenyl)methyl)piperazinyl)propyl)tricyclo[7.4.0.0<2,6>]trideca-1(13),3,5,9(10),11-pentaene-8-one] | 225 to 230.5 °C | – | – | –
Cc1nnc2n(CCCN3CCN(Cc4ccc(Oc5ccccc5)cc4)CC3)c(=O)c3ccccc3n12 (as salt: hydrochloride) [Compound 20, 2,4,5,7-Tetraaza-3-methyl-7-(3-(4-((4-phenoxyphenyl)methyl)piperazinyl)propyl)tricyclo[7.4.0.0<2,6>]trideca-1(13),3,5,9(10),11-pentaene-8-one] | 229 to 237 °C | – | – | –
Cc1nnc2n(CCCN3CCCC(c4c[nH]c5ccccc45)C3)c(=O)c3ccccc3n12 (stereo not drawn) [Compound 5, 2,4,5,7-Tetraaza-7-(3-(3-indole-3-ylpiperidyl)propyl)-3-methyltricyclo[7.4.0.0<2,6>]trideca-1(13),3,5,9(10),11-pentaene-8-one] | 207 to 212 °C (dec.) | 48.1 | 12.9 | –
Cc1nnc2n(CCCN3CCC(c4c[nH]c5ccccc45)CC3)c(=O)c3ccccc3n12 [Compound 6, 2,4,5,7-Tetraaza-7-(3-(4-indole-3-ylpiperidyl)propyl)-3-methyltricyclo[7.4.0.0<2,6>]trideca-1(13),3,5,9(10),11-pentaene-8-one] | 207 to 209 °C (dec.) | – | – | –
Cc1nnc2n(CCCN3CCC(=C(c4ccccc4)c4ccccc4)CC3)c(=O)c3ccccc3n12 [Compound 7] | 157 to 159 °C | – | – | –
Cc1nnc2n(CCCN3CCN(Cc4ccccc4-c4ccccc4)CC3)c(=O)c3ccccc3n12 [Compound 11, 2,4,5,7-Tetraaza-3-methyl-7-(3-(4-((2-phenylphenyl)methyl)piperazinyl)propyl)tricyclo[7.4.0.0<2,6>]trideca-1(13),3,5,9(10),11-pentaene-8-one] | – | > 160 | 9.1 | 3.6
Cc1nnc2n(CCCN3CCN(C4CCCCC4)CC3)c(=O)c3ccccc3n12 [Compound 12] | 118 to 120 °C | – | – | –
Cc1nnc2n(CCCN3CCN(C(c4ccccc4)c4ccccc4)CC3)c(=O)c3ccccc3n12 [Compound 26] | 168 to 173 °C | > 160 | 4.1 | 0.3

Second part, the compound after the results:

melting point | IC50 (CCR2) [µM] | IC50 (CCR1) [µM] | IC50 (CCR3) [µM] | SMILES
166.5 to 180 °C | – | – | – | Cc1nnc2n(CCCCN3CCC(C(c4ccccc4)c4ccccc4)CC3)c(=O)c3ccccc3n12 (as salt: hydrochloride) [Compound 56]
199 to 201 °C | – | – | – | CCc1nnc2n(CCCN3CCN(C(c4ccccc4)c4ccccc4)CC3)c(=O)c3ccccc3n12 [Compound 27]
150 to 152 °C | > 160 | 9.3 | 1.4 | CCCc1nnc2n(CCCN3CCN(C(c4ccccc4)c4ccccc4)CC3)c(=O)c3ccccc3n12 [Compound 28]
194 to 196 °C | – | – | – | COc1ccc2c(c1)c(=O)n(CCCN1CCN(C(c3ccccc3)c3ccccc3)CC1)c1nnc(C)n21 [Compound 33]
184 to 186 °C | – | – | – | COc1cc2c(=O)n(CCCN3CCN(C(c4ccccc4)c4ccccc4)CC3)c3nnc(C)n3c2cc1OC [Compound 35]
116 to 118 °C | > 160 | 16 | 0.5 | Cc1nnc2n(CCCN3CCN(C(c4ccccc4)c4ccccc4)CC3)c(=O)c3cc(Cl)ccc3n12 [Compound 38]
225 to 228 °C | – | – | – | Cc1nnc2n(CCCN3CCN(C(c4ccccc4)c4ccccc4)CC3)c(=O)c3cc(O)ccc3n12 [Compound 40]
154 to 159.5 °C | – | – | – | Cc1nnc2n(CCCN3CCN(C(c4ccccc4)c4ccccc4)CC3)c(=O)c3ccc(C(F)(F)F)cc3n12 [Compound 45]
189 to 191 °C | – | – | – | Cc1nnc2n(CCCN3CCN(C(c4ccccc4)c4ccccc4)CC3)c(=O)c3cc(N(C)C)ccc3n12 [Compound 47]
217 to 219 °C | – | – | – | Cc1nnc2n(CCN3CCN(C(c4ccccc4)c4ccccc4)CC3)c(=O)c3ccccc3n12 [Compound 50]
157 to 159 °C | – | – | – | Cc1nnc2n(CCCCN3CCN(C(c4ccccc4)c4ccccc4)CC3)c(=O)c3ccccc3n12 [Compound 55]
88 to 90 °C | – | – | – | Cc1nnc2c(CCCN3CCC(C(c4ccccc4)c4ccccc4)CC3)nc3ccccc3n12 [Compound 74]
277 to 279 °C | – | – | – | Cc1nnc2n(-c3cccc(N4CCC(C(c5ccccc5)c5ccccc5)CC4)c3)c(=O)c3ccccc3n12 [Compound 85]
77 to 79 °C | – | – | – | Cc1nnc2n(CCCN3CCN(Cc4ccc(Cl)c(Cl)c4)CC3)c(=O)c3ccccc3n12 [Compound 93, 2,4,5,7-Tetraaza-7-(3-(4-(3,4-dichlorobenzyl)piperazine-1-yl)propyl)-3-methyltricyclo[7.4.0.0<2,6>]trideca-1(13),3,5,9(10),11-pentaene-8-one]
